Results from patent US20030040541A1, “Use of bismuth subgallate in inhibition of production of nitric oxide synthase” (Hedonist Biochemical Technologies Co., Ltd., priority 2001, published 2003).

System: RAW 264.7 cells
Experiment: NO production (nitrite, Griess reaction) by LPS/IFN-γ activated RAW 264.7 cells
Assay type: cell-based, mice
Details: 24 hours
Description: The cells of the mice macrophage cell line RAW 264.7 (under accession number CCRC 60001), which was obtained from Cell Culture Research Center, Food Industry Research and Development Institute, Hsinchu, Taiwan, R.O.C., were used for the test.
The RAW 264.7 cells were incubated in a 96 well tissue culture plate (Falcon). After 24 hours, the cells were activated with Dulbecco's Modified Eagle Medium (DMEM, 2014, GibcoBRL) in the presence and absence of 100 ng/ml LPS, 100 U/ml IFN-γ and various concentrations (10 μM, 20 μM, 50 μM, 100 μM and 200 μM) of bismuth subgallate (Hwang et al., 1994, J. Biol. Chem. 269, p. 711-715). After 24 hours, 50 μl of the supernatant from each well was assayed for the presence of nitrite through the Saville modification of the Griess reaction (Green et al., Analytical Biochem, 1982, 126:131-138). The results were represented by the means plus standard errors values (Mean±SE) of three repetitions.
The effect of borneol on the inhibition of NO synthase was tested through the same experimental procedures as described in Example 1. Various concentrations of borneol (0 μM, 40 μM, 80 μM, 160 μM, 320 μM and 640 μM) were used to replace bismuth subgallate of Example 1. The results were represented by the mean values of three repetitions with standard errors (Mean±SE).
The effect of bismuth subgallate in combination with borneol on the inhibition of NO synthase was tested through the similar experimental procedures as described in Example 1. The following concentrations of Bismuth subgallate: 0 μM, 12.5 μM, 25 μM, 50 μM and 100 μM, were combined with the following concentrations of borneol: 0 μM, 10 μM, 20 μM and 40 μM, respectively, to obtain the combinations for the replacement of bismuth subgallate used in Example 1. The results were represented by the mean values of three repetitions with standard errors (Mean±SE).

Row | Compound | NO production (nitrite concentration in supernatant) (borneol 0, 40, 80, 160, 320, 640 μM, LPS + IFN-γ activated cells, FIG. 2) | NO production (nitrite concentration in supernatant) (bismuth subgallate 10, 20, 50, 100, 200 μM, 100 ng/ml LPS + 100 U/ml IFN-γ, FIG. 1) | concentration dependence of NO production (bismuth subgallate 10-200 μM, LPS + IFN-γ activated cells, FIG. 1)
1 | CC1(C)C2CCC1(C)C(O)C2 (stereo not drawn) [borneol] | not significantly inhibited | – | –
2 | bismuth subgallate | – | showed a reduction in nitrite concentration | inversely proportional to the increase in the concentration of bismuth subgallate
